Assay type in all cases: cell-based
Assay [1] relates to A549 (human lung cancer cells). Conditions: MTT, 72 hours. The protocol:
(§1) MCF-7, HT-29, A549 and HepG2 cells are got from American Tissue Culture Collection, which are cultured with the culture medium containing 10% bovine fetal serum in a CO2-containing incubator at 37° C. The MTT method is used to detect cell proliferation and growth inhibition. The number of experimental cells is adjusted to obtain the absorbance at 570 nm, 6 concentrations are set for the compound test solution (0.1 nmol/L˜10 μmol/L). The cells are treated for 72 hours. At least 3 parallel experiments and 3 repeated experiments are conducted for each concentration. The IC50 value is determined by statistical analysis.
(§2) Taking cisplatin as the contrast, the in-vitro growth inhibitory activity of Compound 1 and Compound 2 on tumor cells are tested, including MCF7 (human breast cancer cells), HT-29 (human colon cancer cells), A549 (human lung cancer cells) and HepG2 (liver cancer cells).

Assay [2] relates to HT-29 (human colon cancer cells). The following applies: HT-29 cells, MTT, 72 hours. The protocol: as §1, §2
The subject of assay [3] is HepG2 (liver cancer cells). The following applies: MTT, 72 hours. Here is the method:
as §1, §2

The test system of assay [4] is MCF7 (human breast cancer cells). Conditions: MTT, 72 hours. The protocol: as §1, §2

The term pIC50 denotes −log10 of the IC50, conventionally taken in molar units. A high value points to a low IC50.

pIC50: −log10 of the molar value.

Turning to “Tri-n-butyltin (IV) (4-methoxyphenyl) Acetylenyl Phosphonic Acid Derivatives [Compound 1]”, the pIC50 in assay [1] was 6.61; in assay [2], 7.19; in assay [3], 6.48; in assay [4], 6.07.
